Data on three compounds can be found in publication PMC7699745, “The Search for New Anticonvulsants in a Group of (2,5-Dioxopyrrolidin-1-yl)(phenyl)Acetamides with Hybrid Structure—Synthesis and In Vivo/In Vitro Studies” (International Journal of Molecular Sciences, 2020).

A word on the ED50: it is the dose that gives a 50% effect, or the effect in half of the subjects. For orientation: Papp means a coefficient for how fast a substance crosses the barrier. A higher Papp goes with ready permeation.

Each structure is given as a SMILES string.

The test system of data set [1] is MES seizures, mice. The note with it: known AED, background statement; cited from earlier work.
Data set [2] deals with 6 Hz (32 mA) seizures, mice. The following applies: known AED, background statement; cited from earlier work.
Data set [3] is described as follows: in vivo. The note with it: mouse, ip.
Data set [4] relates to MES seizures, mice. The data set can be described thus: Maximal electroshock (MES) seizure test. In kind it is in vivo. The following applies: Mus musculus, ip, at TPE (0.5 h; LTG 1.0 h), 95% confidence intervals in parentheses. For orientation: Protection in the maximal electroshock model is a classic sign of anticonvulsant action.
Data set [5] has as its system 6 Hz (32 mA) seizures, mice. Nature of the data set: Psychomotor 6 Hz (32 mA) seizure model. It is filed as in vivo. The note with it: Mus musculus, ip, at TPE (0.5 h; LTG 1.0 h), 95% confidence intervals in parentheses.
A short description of data set [6]: in vitro. The note with it: PAMPA. (In general: In PAMPA a lipid-coated filter parts donor from acceptor wells.)
Protocol: Passive diffusion was tested in the parallel artificial membrane permeability assay (PAMPA) and expressed as the permeability coefficient (Pe). A highly permeable compound, caffeine (CFN), and a poorly permeable compound, norfloxacin (NFX), were used as the references.
Precoated PAMPA Plate System Gentest™ was provided by Corning, (Tewksbury, MA, USA).

`COC[C@@H](NC(C)=O)C(=O)NCc1ccccc1` [LCS, lacosamide]: in data set [1], the “activity in the MES model” value is on record as “active”. In data set [2], the “activity in the 6 Hz (32 mA) model” value is recorded as “active”.

`Nc1nnc(-c2cccc(Cl)c2Cl)c(N)n1` [LTG, lamotrigine, reference compound] had a TD50 at 0.5 h in data set [3] of 48.3 mg/kg. For the same compound, the 50% effective dose (ED50) was determined as 3.1 mg/kg in data set [4] and 6.4 mg/kg in data set [5].

`CCn1cc(C(=O)O)c(=O)c2cc(F)c(N3CCNCC3)cc21` [NFX, norfloxacin] displayed a Papp in data set [6] of 0.056 ×10⁻⁶ cm/s.
